Results reported in ChEMBL document CHEMBL3507680, “University of Dundee, Gates Library screen for HepG2 cell viability”.

Test: Human HepG2 cell viability assay in 384 well format
Format: toxicity, cell-based
Parameters: dose 125 nL, time 70.5 hour; cytotoxicity at 70.5 h: concentration not given beside the values
Settings: HepG2 cells, read-out: Inhibition

SMILES | cytotoxicity at 70.5 h [%]
c1cnn(CC2CCCN2Cc2ccc(-n3cccn3)cc2)c1 (centres undefined) | -8.68
CC(Cn1ccnc1)NC(=O)N1CCCN(Cc2cccs2)CC1 (centres undefined) | -14
Cc1nc(C2CCCN2C(=O)CCn2cncn2)no1 (centres undefined) | -3.86
CC1CCN(Cc2ccc(CNC(=O)c3ccn(C)c(=O)c3)cc2)CC1 | -9.84
CCOc1ncccc1CNC(=O)Nc1ccc(CC)cc1 | -7.83
CN(C)c1ncccc1CNS(=O)(=O)c1ccccc1Cl | -4.36
CC(=O)NC1CCCN(C(=O)NCCOc2ccc3c(c2)OCO3)C1 (centres undefined) | -10.3
CC(Cn1ccnc1)NC(=O)N1CCN(Cc2cccs2)CC1 (centres undefined) | 13.9
CN(C)c1ncccc1CNS(=O)(=O)c1c(F)cccc1F | -8.75
Cn1ccc(C(=O)NCc2ccc(CN3CCCC3)cc2)cc1=O | -12.4
Cc1nn(C)c(N(C)C)c1CNC(C)COc1ccc(F)cc1 (centres undefined) | -4.85
CC(=O)NCCCC(=O)NC(C)c1nnc2n1CCC2 (centres undefined) | -11.1
CN(C)c1ccc(NC(=O)NCc2cccnc2N(C)C)cn1 | -8.32
c1ccc(-n2ccc(CN3CCCC3Cn3cncn3)n2)cc1 (centres undefined) | -3.62
COCc1nc(C(=O)N2CCCC(n3ccnc3)C2)cs1 (centres undefined) | -10
CC(C)c1nc(C2CCCN2C(=O)CCn2cncn2)no1 (centres undefined) | -7.37
CCn1nc2c(cc1=O)CN(CC(=O)Nc1nncs1)CC2 | -10.2
CCc1n[nH]c(C2CN(C(=O)c3ccc(Cl)cn3)CCO2)n1 (centres undefined) | -8.84
O=C(c1cccc(F)c1)N1CCCN(Cc2cscn2)CC1 | 21.5
Cc1cnn(CCNCc2nnc(-c3occc3C)o2)c1 | -5.91
CCn1cc(NC(=O)NCc2ccc(CO)c(F)c2)cn1 | -7.1
CCn1cc(NC(=O)NCCc2ccc3c(c2)OCO3)cn1 | -10.2
COc1c(CNC2CCc3ccccc32)c(C)nn1C (centres undefined) | -10.5
CC(C)CCN(C(=O)c1ccc(-n2ncc(C#N)c2N)cc1)C1CC1 | -6.84

SMILES | cytotoxicity at 70.5 h [%]
COc1ccc(Cl)cc1CC(=O)N1CCN(CC(C)(C)O)CC1 | -3.48
CC(C)(C)c1cc(NC(=O)CN2CCC(N3CCNC3=O)CC2)on1 | 17
O=C(NCCC(=O)N1CCCCCCC1)c1ccoc1 | -1.22
CC(C)c1nc(CN(C)C2CCN(CCc3ccncc3)C2)no1 (centres undefined) | -2.44
COCc1ccc(C(=O)N2CCCN(Cc3cscn3)CC2)cc1 | -6.01
CCc1nc(CN(C)C2CCN(CCCOc3ccccc3)C2)no1 (centres undefined) | 9.63
Cc1cnc(CN(C)C2CCN(Cc3nnc(C4CC4)o3)C2)o1 (centres undefined) | -4.32
Cc1cc(C)n(CC2CN(Cc3noc(C4CC4)n3)CCO2)n1 (centres undefined) | -6.69
CCOc1ncccc1C(=O)N1CCCC1c1c(C)nn(C)c1Cl (centres undefined) | 11.9
Cc1cnn(CC2CCCN2C(=O)c2ccc(F)cc2Cl)c1 (centres undefined) | 0.634
Cc1cnn(CC2CN(CC(=O)N(C)Cc3ccsc3)CCO2)c1 (centres undefined) | 5.76
CC(C)CCCNC(=O)Nc1ccc(C(N)=O)c(Cl)c1 | -4.82
CC(C)CCCNC(=O)Nc1ccc(Cl)c(C(N)=O)c1 | 1.37
CS(=O)(=O)N1CCC(NC(=O)COc2cccc(Cl)c2)CC1 | 1.43
CCOCCCNC(=O)Nc1ccc(F)c(C(N)=O)c1 | 6.9
O=C(CCOc1ccccc1Cl)N1CCN(c2cnccn2)CC1 | 0.75
COC(=O)c1cccn1C1CCN(Cc2cccnc2)CC1 | 4.46
CCc1nc(CN2CCOC(Cn3nc(C)cc3C)C2)no1 (centres undefined) | 38.2
Cc1ccc(C)c(S(=O)(=O)CCNC2CCc3ncnn3C2)c1 (centres undefined) | -0.666
Cc1cnn(CC2CCCN2C(=O)c2ccc(Cl)cc2F)c1 (centres undefined) | -1.79
COc1ccccc1OCC(=O)NS(=O)(=O)c1ccc(Cl)s1 | -2.89
COc1ncccc1C(=O)N1CCCC1c1c(C)nn(C)c1Cl (centres undefined) | -0.671
Cc1cn2nc(N3CCCCC3Cn3cccn3)sc2n1 (centres undefined) | 22.5
O=C(NCCOCC(F)(F)F)c1ccc(-c2ccco2)[nH]c1=O | -9.67

SMILES | cytotoxicity at 70.5 h [%]
Cc1cc(C)n(CC2CCCN2C(=O)Cc2c(C)noc2C)n1 (centres undefined) | 7.13
CCc1nccn1C1CCCN(C(=O)c2cc3nc(C)ccc3o2)C1 (centres undefined) | -2.05
CCc1nccn1C1CCCN(C(=O)c2cnn(C)c2C2CC2)C1 (centres undefined) | -0.779
CNS(=O)(=O)c1cccc(CNc2cc(C(F)(F)F)ccn2)c1 | -0.978
COc1ccc(-n2ccc(C(=O)NCCN3CCCCC3C)n2)cc1 (centres undefined) | 7.59
Cc1ccccc1CN1CCCN(C2CCOC2=O)CC1 (centres undefined) | 3.44
c1csc(-c2noc(CCCN3CCCC3Cn3cccn3)n2)c1 (centres undefined) | -8.63
O=C(c1ccc2c(c1)CCCC2)N1CCOCC1c1ncon1 (centres undefined) | 2.82
COc1cc(CNCc2c(C)nn(C)c2N(C)C)ccc1C | -3.16
Cc1nccn1C1CCCN(C(=O)C2=NN(C)C(=O)CC2)C1 (centres undefined) | 9.33
O=C(COCC1CC1)N1CCCC(n2cncn2)C1 (centres undefined) | -9.93
Cc1nc(C)n(C2CCCN(C(=O)c3csnn3)C2)n1 (centres undefined) | -11.1
COc1ccc(C(=O)N2CCCC(C)C2)cc1F (centres undefined) | -2.9
Cc1ccc(N2CCCC(NCc3cccc4c3OCCO4)C2)nn1 (centres undefined) | -4.41
CCOCC(O)CN1CCN(C(=O)C2CC2)CC1 (centres undefined) | -13.7
Cc1cc(C)n(C2CCCN(C(=O)C3=NN(C)C(=O)CC3)C2)n1 (centres undefined) | -9.81
COc1cccc(COCC(=O)N2CCCC(c3cc(C)[nH]n3)C2)c1 (centres undefined) | -14.7
Cn1cc(N2CCCC(NCc3cccc4c3OCCCO4)C2)cn1 (centres undefined) | -14.6
CCc1nc(CNC(C)Cn2cccn2)cs1 (centres undefined) | -11.9
Cc1cnn(C2CCCN(C(=O)C3=NN(C)C(=O)CC3)C2)c1 (centres undefined) | 22.6
COc1ccc(C(=O)N2CCCC(CNS(C)(=O)=O)C2)cc1F (centres undefined) | -10.9
O=C(NCCNc1ncccn1)N1CCN(Cc2cccnc2)CC1 | 21.2
Cn1ncc2c1CCCC2NCc1cnc(-c2ccccc2)nc1 (centres undefined) | -0.439
Cc1ccc(-c2ncc(C(=O)NCCS(N)(=O)=O)s2)c(C)c1 | -1.3

SMILES | cytotoxicity at 70.5 h [%]
Cc1ccc(-c2ncc(C(=O)NCCNc3ncccn3)s2)c(C)c1 | 3.03
CCN1CCN(CC(O)c2ccc(OC(F)(F)F)cc2)CC1 (centres undefined) | 28.9
CC(C)Oc1ncccc1CNC(=O)c1cc[nH]n1 | -7.86
OC(CN1CCOCC1)c1ccc(OC(F)(F)F)cc1 (centres undefined) | -9.34
Cc1cnn(CC2CN(Cc3nc(-c4ccoc4)no3)CCO2)c1 (centres undefined) | -18.2
N#Cc1ccccc1OCCN1CCCCC1Cn1cncn1 (centres undefined) | -7.56
COc1cc(C)nc(N2CCN(C(=O)c3ccccc3C)CC2)n1 | 43.9
COc1ncccc1C(=O)N1CCCC(c2cc(C)[nH]n2)C1 (centres undefined) | -2.72
CC(Cn1cccn1)NCc1csc(-c2ccccc2F)n1 (centres undefined) | -15.5
CC(NC(=O)CN(C)S(C)(=O)=O)c1nnc2n1CCCCC2 (centres undefined) | 48.1
CC(c1cccc(S(N)(=O)=O)c1)N(C)CCc1ccccc1 (centres undefined) | 11.5
CSc1ccc(Cl)c(C(=O)N2CCCC(CNS(C)(=O)=O)C2)c1 (centres undefined) | 17.2
O=C(NCC(=O)N1CCCCC1)c1ccoc1 | -7.84
CN(C)c1ncccc1CNS(=O)(=O)c1ccccc1F | -27.7
O=C(NCCn1ccnc1)N1CCN(Cc2cccs2)CC1 | -17.2
Cc1ccc(C(=O)NCCNc2ncccc2C#N)c(=O)[nH]1 | 20.6
Cc1nn(C)c(N(C)C)c1CNC(C)c1cccc(OC(C)C)c1 (centres undefined) | -11.2
Cc1nn(C)c(N(C)C)c1CNC(C)Cc1c(F)cccc1F (centres undefined) | -16.6
CCOc1ncccc1CNC(=O)Nc1ccc(N(C)C)nc1 | 17.3
CN(CC1CCCCC1)C(=O)c1ccc(-n2ncc(C#N)c2N)cc1 | -5.32
O=C(Cc1c[nH]c2ccccc12)N1CCC(Nc2cccnn2)CC1 | -10.3
CCN(C(=O)c1ccc(-n2ncc(C#N)c2N)cc1)C1CCCC1 | -12.1
CCc1nccn1C1CCCN(C(=O)c2csc(NC(C)=O)n2)C1 (centres undefined) | -16.5
Cc1ccc(-c2nnc(CNCCn3cc(C)cn3)o2)cc1 | -18.3

SMILES | cytotoxicity at 70.5 h [%]
O=C(NCCN1CCCCC1)c1ccoc1 | 17.6
CCCn1nc2c(cc1=O)CN(CC(=O)Nc1nnc(C)s1)CC2 | -22
CCc1n[nH]c(C2CN(C(=O)c3ncoc3C(C)C)CCO2)n1 (centres undefined) | -9.85
O=C(NCCCn1ccnc1)N1CCN(c2cccs2)CC1 | -8.6
COCCN1CCCN(C(=O)NC(C)Cn2ccnc2)CC1 (centres undefined) | 2.76
Cc1nc(CNCC2CN(C)CCO2)cs1 (centres undefined) | -4.42
CCc1sc(-c2nnc(CNCCn3cc(C)cn3)o2)cc1C | -1.42
CCc1nc(C2CCCN2CCn2cncn2)no1 (centres undefined) | -5.31
COCCOc1cccc(C(=O)N2CCCC(n3ccnc3C)C2)c1 (centres undefined) | -2.47
Cc1nn(C)c(N(C)C)c1CNC(C)COc1cccc(F)c1 (centres undefined) | 23.8
CN(Cc1cn2ccccc2c1C#N)C1CCCN(c2cccnn2)C1 (centres undefined) | -11.9
CCc1nc(C2CCCN2C(=O)CCCn2cccn2)no1 (centres undefined) | -7.2
Cc1nc(COc2ccc(CNCC3CN(C)CCO3)cc2)cs1 (centres undefined) | 20.1
COCCOc1cccc(C(=O)N2CCCC(n3cccn3)C2)c1 (centres undefined) | -14.7
CN(Cc1noc(C2CC2)n1)C1CCN(Cc2nnc(C3CC3)o2)C1 (centres undefined) | -3.86
CC(=O)N(Cc1noc(C)n1)C1CCN(CCOc2ccccc2)C1 (centres undefined) | 1.16
Cc1nc(CN2CCC(N(C)Cc3noc(C4CC4)n3)C2)oc1C (centres undefined) | 4.91
Cc1nc(CN(C)C2CCN(Cc3ccc4ccccc4n3)C2)no1 (centres undefined) | 20.5
COCCNC(=O)Nc1ccc(F)c(C(N)=O)c1 | -6.9
CC(C)c1cc(NC(=O)CN2CCNC(=O)C2)on1 | -5.09
CN1CCC/C1=N\S(=O)(=O)c1ccc(NC(=O)CCc2cccs2)cc1 | -1.04
CC(C)C(NC(=O)Cn1ccc(=O)n(C)c1=O)c1ccc(F)cc1 (centres undefined) | -13.2
COc1c(CNC2CCSc3ccc(F)cc32)c(C)nn1C (centres undefined) | 25.9
